# Measured values taken from patent US6867207B2, “IL-5 inhibiting 6-azauracil derivatives” (Janssen Pharmaceutica N.V., priority 1997, dated 2005).
# Test system: IL-5 production
# Test: In vitro inhibition of IL-5 production in human blood (phytohemagglutinin-stimulated whole blood, ELISA);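 note: values marked with an asterisk were tested at 10 µM and unmarked values at 1 µM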
# Assay type: cell-based
# Conditions: test dose 1×10^−6 M, 48 hours
# Experimental: In Vitro Inhibition of IL-5 Production in Human Blood
# Human Whole Blood Stimulation
# Peripheral blood from healthy male donors was drawn into heparinized syringes (12.5 U heparin/ml). Blood samples were three-fold diluted in RMPI 1640 medium (Life Technologies, Belgium) supplemented with 2 mM L-glutamine, 100 U/ml penicillin and 100 μg/ml streptomycin, and 300 μl fractions were distributed in 24-well multidisc plates. Blood samples were preincubated (60 minutes at 37° C.) in a humidified 6% CO2-atmosphere with 100 μl of drug solvent (final concentration 0.02% dimethylsulfoxide in RPMI 1640) or with 100 μl of an appropriate dose of test compound before being stimulated by the addition of 100 μl of phytohemagglutinin HA17 (Murex, UK) at a final concentration of 2 μg/ml. After 48 hours, cell-free supernatant fluids were collected by centrifugation and stored at −70° C. until tested for the presence of IL-5.
# IL-5 measurements were conducted as described in Van Wauwe et al. (1996, Inflamm Res, 45, 357-363) on page 358 using ELISA.
# Table 9 lists the percentage inhibition of IL-5 production (column “% inh”) at a test dose of 1×10^−6 M, or in case the percentage inhibition is marked with an “*” 1×10^−5 M, the compounds of the present invention.
row,SMILES,% inh. (percentage inhibition of IL-5 production)
1,Cc1nnc(C(c2ccc(Cl)cc2)c2c(Cl)cc(-n3ncc(=O)[nH]c3=O)cc2Cl)o1 (racemic) [Compound 162],63%
2,O=c1cnn(-c2cc(Cl)c(C(c3ccc(Cl)c(C(F)(F)F)c3)c3nc(-c4ccccc4Cl)cs3)c(Cl)c2)c(=O)[nH]1 (racemic) [Comp 254],86%
3,Cc1sc(C(c2ccc(Cl)cc2)c2c(Cl)cc(-n3ncc(=O)[nH]c3=O)cc2Cl)nc1-c1cccc(F)c1 (racemic) [Comp 258],98%
4,O=c1cnn(-c2cc(Cl)c(C(Sc3nc(-c4ccccc4)no3)c3ccc(Cl)cc3)c(Cl)c2)c(=O)[nH]1 (racemic) [Compound 408],88%
5,[N-]=[N+]=Nc1ccc(-c2nnc(C(c3ccc(Cl)cc3)c3c(Cl)cc(-n4ncc(=O)[nH]c4=O)cc3Cl)o2)cc1 (racemic) [Compound 185],81%
6,O=c1cnn(-c2cc(Cl)c(C(c3ccc(Cl)cc3)c3nc(-c4cccc(Br)c4)cs3)c(Cl)c2)c(=O)[nH]1 (racemic) [Comp 250],84%
7,O=c1cnn(-c2cc(Cl)c(C(c3ccc(Cl)cc3)c3sc(-c4ccccc4Cl)nc3-c3ccccc3Cl)c(Cl)c2)c(=O)[nH]1 (racemic) [Compound 147],50%
8,O=c1cnn(-c2ccc(C(SC3CCCCC3)c3ccc(Cl)cc3)c(Cl)c2)c(=O)[nH]1 (stereo not shown) [Compound 90],60%
9,O=c1cnn(-c2cc(Cl)c(C(c3ccc(Cl)cc3)c3csc(-c4cccnc4)n3)c(Cl)c2)c(=O)[nH]1 (racemic) [Compound 375],91%
10,CCOC(=O)N1CCN(c2ccnc(SC(c3ccc(Cl)cc3)c3c(Cl)cc(-n4ncc(=O)[nH]c4=O)cc3Cl)n2)CC1 (racemic) [Compound 352],85%
11,O=c1cnn(-c2cc(Cl)c(C(Sc3nc4ccccc4o3)c3ccc(Cl)cc3)c(Cl)c2)c(=O)[nH]1 (stereo not shown) [Compound 383],78%
12,Nc1cc(O)nc(SC(c2ccc(Cl)cc2)c2ccc(-n3ncc(=O)[nH]c3=O)cc2Cl)n1 (stereo not shown) [Compound 87],9%
13,O=c1cnn(-c2cc(Cl)c(C(c3ccc(Cl)cc3)c3nnc(-c4cccs4)o3)c(Cl)c2)c(=O)[nH]1 (racemic) [Compound 166],87%
14,O=c1cnn(-c2cc(Cl)c(C(c3ccc(Cl)cc3)c3nnc(-c4ccccn4)o3)c(Cl)c2)c(=O)[nH]1 (racemic) [Compound 169],81%
15,CN(C)CCN(C)C(=O)Cc1sc(C(c2ccc(Cl)cc2)c2c(Cl)cc(-n3ncc(=O)[nH]c3=O)cc2Cl)nc1-c1ccccc1 (racemic) [Comp 335],52%
16,O=c1cnn(-c2ccc(C(Sc3ccc(F)cc3)c3ccc(Cl)cc3)c(Cl)c2)c(=O)[nH]1 (racemic) [Compound 57],50%
17,Cc1sc(C(C)(c2ccc(Cl)c(Cl)c2)c2c(Cl)cc(-n3ncc(=O)[nH]c3=O)cc2Cl)nc1-c1ccccc1 (racemic) [Comp 233],84%

row,SMILES,% inh. (percentage inhibition of IL-5 production)
1,Nc1ccccc1-c1nnc(C(c2ccc(Cl)cc2)c2c(Cl)cc(-n3ncc(=O)[nH]c3=O)cc2Cl)o1 (racemic) [Compound 211],83%
2,O=C(O)Cc1sc(C(c2ccc(Cl)cc2)c2c(Cl)cc(-n3ncc(=O)[nH]c3=O)cc2Cl)nc1-c1ccccc1 (racemic) [Comp 300],27%
3,O=c1cnn(-c2cc(Cl)c(C(c3ccc(Cl)cc3)c3nnc(-c4cccc(F)c4)o3)c(Cl)c2)c(=O)[nH]1 (racemic) [Compound 160],91%
4,O=c1cnn(-c2cc(Cl)c(C(c3ccc(Cl)cc3)c3nnc(-c4ccccc4F)o3)c(Cl)c2)c(=O)[nH]1 (racemic) [Compound 156],91%
5,Cc1nc(-c2ccccc2)sc1C(c1ccc(Cl)cc1)c1c(Cl)cc(-n2ncc(=O)[nH]c2=O)cc1Cl (racemic) [Compound 138],81%
6,O=c1cnn(-c2ccc(C(c3ccc(Cl)cc3)c3ccccn3)c(Cl)c2)c(=O)[nH]1 (stereo not shown) [Comp 114],40%
7,O=c1cnn(-c2cc(Cl)c(C(c3ccc(Cl)cc3)c3nc(Cc4ccccc4)cs3)c(Cl)c2)c(=O)[nH]1 (racemic) [Comp 225],80%
8,Nc1ccc2nc(SC(c3ccc(Cl)c(C(F)(F)F)c3)c3c(Cl)cc(-n4ncc(=O)[nH]c4=O)cc3Cl)sc2c1 (stereo not shown) [Compound 389],91%
9,O=c1cnn(-c2cc(Cl)c(C(c3ccc(Cl)cc3)c3nnc(-c4ccccc4[N+](=O)[O-])o3)c(Cl)c2)c(=O)[nH]1 (racemic) [Compound 210],79%
10,COCc1cc(O)nc(SC(c2ccc(Cl)cc2)c2ccc(-n3ncc(=O)[nH]c3=O)cc2Cl)n1 (racemic) [Compound 82],19%
11,O=c1cnn(-c2cc(Cl)c(C(Sc3nc(-c4ccco4)cs3)c3ccc(Cl)c(C(F)(F)F)c3)c(Cl)c2)c(=O)[nH]1 (racemic) [Compound 399],93%
12,O=c1cnn(-c2cc(Cl)c(C(c3ccc(Cl)cc3)c3nc(-c4ccc(-c5ccccc5)cc4)cs3)c(Cl)c2)c(=O)[nH]1 (racemic) [Comp 30],57%
13,Nc1cc(N)nc(SC(c2ccc(Cl)cc2)c2ccc(-n3ncc(=O)[nH]c3=O)cc2Cl)n1 (racemic) [Compound 70],51%
14,CN(CCc1ccccc1)Cc1sc(C(c2ccc(Cl)cc2)c2c(Cl)cc(-n3ncc(=O)[nH]c3=O)cc2Cl)nc1-c1ccccc1 (racemic) [Comp 332],86%
15,Cc1ccnc(SC(c2ccc(Cl)cc2)c2ccc(-n3ncc(=O)[nH]c3=O)cc2Cl)n1 (racemic) [Compound 75],72%
16,O=c1cnn(-c2ccc(C(c3ccc(Cl)cc3)c3ncc(-c4ccccc4)o3)c(Cl)c2)c(=O)[nH]1 (racemic) [Comp 103],63%
17,O.O=c1cnn(-c2cc(Cl)c(C(c3ccc(Cl)cc3)c3nnc(-c4ccncc4)o3)c(Cl)c2)c(=O)[nH]1 (racemic) [Compound 158],92%

# Same assay, conditions: test dose 1×10^−6 M, 48 hours, read-out: % inh. (percentage inhibition of IL-5 production)
row,SMILES,inhibition at 1 µM
1,"NC(c1ccc(Cl)cc1)(c1nccs1)c1ccc(-n2ncc(=O)[nH]c2=O)cc1Cl (racemic) [Compound 35, (±)-2-[3-chloro-4-[amino-(4-chlorophenyl)-2-thiazolylmethyl]phenyl]-1,2,4-triazine-3,5(2H,4H)-dione]",56%
2,"O=c1cnn(-c2ccc(C(Nc3nc4cccnc4s3)c3ccc(Cl)cc3)c(Cl)c2)c(=O)[nH]1 (racemic) [Compound 410, (±)-2-[3-chloro-4-[(4-chlorophenyl)[(thiazolo[5,4-b]pyridin-2-yl)amino]methyl]phenyl]-1,2,4-triazine-3,5(2H,4H)-dione]",15%
3,"O=c1cnn(-c2ccc(C(c3ccc(Cl)cc3)c3nc4ccccc4s3)c(Cl)c2)c(=O)[nH]1 (racemic) [Compound 130, (±)-2-[4-[2-benzothiazolyl-(4-chlorophenyl)methyl]-3-chlorophenyl]-1,2,4-triazine-3,5(2H,4H)-dione]",70%
